Source: patent US12350350B2, “Hyperpolarisation in aqueous media via sabre” (UNIVERSITY OF YORK, priority 2017, dated 2025)

Legend:
[1] = Solubility in water and organic solvent (stated); settings: for solubility in organic solvent: CD3Cl or CD2Cl2
[2] = UV-vis quality control: catalyst in the aqueous phase after phase separation; assay type: physicochemical; settings: UV spectrum 10 seconds after mixing, no signal seen
Method: A UV spectrum was recorded to monitor the amount of catalyst present in the aqueous phase 10 seconds after mixing. As detailed in Figure S98 no signal is seen which places an upper limit of 1.5×10^−6 mol dm^−3 on the iridium concentration based on [Ir(H)2(IMes)(pz)3]Cl. The sample used mimicked that of 5.1.

[3] = UV monitoring of pz transfer from aqueous phase into chloroform, with and without NaCl; assay type: physicochemical; settings: H2O layered over equivalent volume of CHCl3
Method: Relative rates of pz transfer from the aqueous phase into chloroform were assessed, with, and without NaCl, by UV monitoring as detailed in Figure S100. This involved layering a sample of H2O containing pyrazine over an equivalent volume of CHCl3 that contained no pz.

Compound	solubility in organic solvent [1]	solubility in water / D2O [1]	other results
Fc1cccnc1 [3-fluoropyridine]	highly soluble in organic solvent	–	–
[2H]c1cc([2H])c(C(=O)OC)cn1 [d2-methylnicotinate]	fully soluble in CD3Cl phase	partially soluble in D2O phase	–
[Ir(H)2(IMes)(pz)3]Cl	–	–	upper limit on iridium concentration in the aqueous phase [2]: ≤ 1.5×10^−6 mol dm^−3
Nc1ccncc1 [4-aminopyridine]	–	fully water soluble	–
[2H]c1cc([2H])c(C(N)=O)cn1 [d2-nicotinamide]	partially soluble in organic solvent	full water soluble	–
c1cnccn1 [pyrazine]	–	–	rate of transfer between the phases, effect of NaCl [3]: increase the rate of pz transfer between the phases; relative partitioning between aqueous phase and chloroform, effect of NaCl [3]: unaffected by added NaCl
